In PubChem BioAssay AID1508612 one finds Papp data, which are given here for 94 molecules.

A word on the Papp: it is a coefficient for how fast a substance crosses the barrier. Higher therefore signals fast passage.

This data set in a line: passive permeability, PAMPA, ADME assay (AID 1508612). Particulars: pH 7.4, 30.0 min, 50.0 µM. On the technique in general: The PAMPA barrier holds no transporters, so it reflects passive diffusion.
The molecule `COc1ccc(Cn2c(C(=O)O)c(CNCc3ccco3)c3ccc(C)cc32)cc1` had a Papp of 654 ×10⁻⁶ cm/s.
To `O=C(NCC1CCN(Cc2cccc(Cl)c2)CC1)Nc1ccc(F)c(Cl)c1` belongs above 1000 ×10⁻⁶ cm/s; to `O=C(NC1CCCN(c2cc(-c3ccc(F)cc3)[nH]n2)C1)c1ccc2ncccc2c1` (centres undefined), 61.8 ×10⁻⁶ cm/s.
Turning to `Cc1ccccc1C(=O)N1CCc2cc(-c3csc(NC(=O)Cc4ccc5c(c4)OCO5)n3)ccc21`, the apparent permeability coefficient (Papp) is above 1000 ×10⁻⁶ cm/s.
Regarding `COc1ccc(-c2csc(N3CCC(C(N)=O)CC3)n2)cc1OC`, the Papp is 270 ×10⁻⁶ cm/s.
The figure for `Cc1c(-c2cccc(NC(=O)c3ccc(F)c(F)c3)c2)nc2ncccn12` is 908 ×10⁻⁶ cm/s; for `Cc1ccc(NC(=O)c2c(N3CCCC3=O)c3cc(C)ccc3n2C)c(C)c1` it is above 1000 ×10⁻⁶ cm/s.
`Cc1cccc(N2CCN(c3nc4ccccc4c4nnc(C)n34)CC2)c1C` registered a Papp of 887 ×10⁻⁶ cm/s.
`COc1ccc(-n2c(C)cc(-c3nnc4n3CCCCC4)c2C)cc1` yielded a Papp of 488 ×10⁻⁶ cm/s.
As for `CCCc1nnc(NC(=O)c2nc(S(=O)(=O)Cc3ccc(C)cc3)ncc2Cl)s1`, the Papp is 89.4 ×10⁻⁶ cm/s.
The molecule `COc1ccc(-c2cc(-c3cccc4[nH]ncc34)cn3cncc23)cn1` came in with a Papp below 1 ×10⁻⁶ cm/s.
In turn, `O=S(=O)(Nc1ccc(C2CCNCC2)cc1)c1ccc(NCc2cccc(Cl)c2O)cc1` yielded an apparent permeability coefficient (Papp) of 3.22 ×10⁻⁶ cm/s.
The molecule `COc1ccc(CCNc2ncnc3onc(C)c23)c(OC)c1` registered a Papp of 752 ×10⁻⁶ cm/s.
Take `Fc1cccc(-c2ccc(Nc3nc(-c4ccncc4)nc4ccccc34)cc2F)c1`: the Papp was determined as 49 ×10⁻⁶ cm/s.
`NC1CCN(C(=O)C2CCCN(c3nc(-c4ccccc4)nc4c3CCC4)C2)CC1` (centres undefined) had a Papp of 475 ×10⁻⁶ cm/s.
In turn, `CN(C)c1cccc(-c2cnc(N3CCC(c4ncc[nH]4)CC3)s2)c1` showed a Papp of 955 ×10⁻⁶ cm/s.
On to `O=C(c1ccc2ncccc2c1)N1CCc2c(nc3cc[nH]n3c2=O)C1`, for which the apparent permeability coefficient (Papp) was 101 ×10⁻⁶ cm/s.
In the case of `COc1ccc(C(=O)NC2CCCc3c2[nH]c2c(Cl)cccc32)cc1OC` (centres undefined), the Papp was found to be 139 ×10⁻⁶ cm/s.
As for `Cc1ccc(-c2cc(C(=O)Nc3ccc(S(=O)(=O)Nc4ccc(C#N)cc4)cc3)c3ccccc3n2)cc1C`, the Papp is below 1 ×10⁻⁶ cm/s.
Turning to `C=Cc1ccc(Cn2c(C(=O)O)c(CNCc3ccccc3)c3ccc(OC)cc32)cc1`, the Papp was found to be 900 ×10⁻⁶ cm/s.
For `O=C1CCCC2=C1C(c1ccncc1Br)N=C(Nc1nc3ccccc3o1)N2` (centres undefined), the Papp is above 1000 ×10⁻⁶ cm/s.
As for `CCOC(=O)N1CCN(Cc2nc3c(c(=O)n(C)c(=O)n3C)n2Cc2cccc(C)c2)CC1`, the Papp was found to be 477 ×10⁻⁶ cm/s.
Take `CN1CCCC1CCOC(c1cc2nccc(C(=O)O)c2[nH]1)c1ccccc1Cl` (centres undefined): the Papp was 1.1 ×10⁻⁶ cm/s.
On to `NC(=O)C1CCN(c2nc(-c3ccc([N+](=O)[O-])cc3)cs2)CC1`, for which the Papp is 604 ×10⁻⁶ cm/s.
With `Cc1nsc(N)c1C(=O)N(C)CCOc1ccccc1Cl`, the Papp is 389 ×10⁻⁶ cm/s.
Regarding `CNc1oc(-c2cccc3ccccc23)nc1C(=O)OC`, the Papp is above 1000 ×10⁻⁶ cm/s.
The molecule `CCC(=O)NC(c1ccc(OC)cc1)c1cc(Cl)c2cccnc2c1O` (centres undefined) registered a Papp of 687 ×10⁻⁶ cm/s.
As to `COc1ccc(-n2nc(C3CCCN(C(=O)Cc4ccccn4)C3)[nH]c2=O)cc1` (centres undefined), the Papp turned out to be 106 ×10⁻⁶ cm/s.
`COc1ccc(C(=O)Nc2nc(-c3ccccc3)cs2)c(OC)c1` had a Papp above 1000 ×10⁻⁶ cm/s.
For the molecule `O=C(NC1CC1)c1nc(-c2cccnc2)c2cnccn12`, the Papp stood at 31.8 ×10⁻⁶ cm/s.
As to `CCCOC(=O)c1ccc(Oc2c(-c3ccc(O)cc3O)n[nH]c2C)cc1`, the Papp is above 1000 ×10⁻⁶ cm/s.
With `COc1cc2c(Oc3ccc(-c4cnc(Nc5ccc(F)cc5)n(C)c4=O)cc3F)ccnc2cc1OCCCN1CCOCC1`, the apparent permeability coefficient (Papp) worked out at 92.9 ×10⁻⁶ cm/s.
Molecule `NC(=O)C1CCN(c2nnc(-c3ccc4c(c3)OCCCO4)s2)CC1` yielded a Papp of 83.8 ×10⁻⁶ cm/s.
Consider `CCOc1ccccc1N(CC(=O)N1CCOCC1)S(=O)(=O)c1ccc(SC)cc1`, for which the Papp came to 550 ×10⁻⁶ cm/s.
In turn, `Cc1ccccc1S(=O)(=O)N1CCCC(CCC(=O)NCCN(C)C2CCCCC2)C1` (centres undefined) displayed a Papp above 1000 ×10⁻⁶ cm/s.
In turn, `Cc1ccnc(NC(=S)N2CCCC(Nc3cccc(C(F)(F)F)c3)C2)c1` (centres undefined) gave a Papp above 1000 ×10⁻⁶ cm/s.
The figure for `COc1cc2c(c(OC)c1OC)-c1ccc(SC)c(=O)cc1C(N)CC2` (centres undefined) is above 1000 ×10⁻⁶ cm/s.
To `O=C(Nc1ccc2oc(-c3cccnc3)nc2c1)c1ccc(-c2ccccc2)o1` belongs 771 ×10⁻⁶ cm/s; to `CC(=O)c1c(C)[nH]c(C(=O)Nc2cccc(S(=O)(=O)N3CCCCCC3)c2)c1C`, above 1000 ×10⁻⁶ cm/s.
`COc1ccc2c(c1)/C(=C/c1cnc[nH]1)C(=O)N2` yielded a Papp of 220 ×10⁻⁶ cm/s.
For `CCOc1ccc(C2C(C(=O)Nc3ccccc3OC)=C(C)Nc3c(C(=O)Nc4cccc(C)c4)cnn32)cc1` (centres undefined), the Papp turned out to be 871 ×10⁻⁶ cm/s.
The molecule `Cc1nn(CC(=O)NCCCN2CCC(N3CCCCC3)CC2)c(=O)c2cc(-c3ccccc3)nn12` registered a Papp of 15.4 ×10⁻⁶ cm/s.
In turn, `CCOC(=O)c1csc(NC(=O)c2ccncc2NS(=O)(=O)c2ccc(C)cc2)n1` had a Papp of 114 ×10⁻⁶ cm/s.
To `Fc1ccc(Oc2nc(-c3ccncc3)nc3ccccc23)cc1F` belongs 16.5 ×10⁻⁶ cm/s; to `COc1ncc(-c2n[nH]c3c2CC(=O)N(c2ccccc2)C3)cn1`, 33.5 ×10⁻⁶ cm/s.
Molecule `CN(C)CCOC1=Cc2ccccc2Sc2ccc(Cl)cc21` yielded a Papp of 996 ×10⁻⁶ cm/s.
To `Cc1cc(-c2nnc3n2CCCCC3)c(C)n1-c1ccc(Cl)cc1` belongs above 1000 ×10⁻⁶ cm/s.
For `COc1ccc(CNc2ccc(S(=O)(=O)Nc3nccs3)cc2)c(O)c1`, the Papp was below 1 ×10⁻⁶ cm/s.
The figure for `CCN(CC)C(=O)c1coc(COc2ccc3c(c2)C(c2cccc(F)c2)N(C(=O)C(C)C)CC3)n1` (centres undefined) is above 1000 ×10⁻⁶ cm/s; for `Oc1c(C(Nc2nccs2)c2ccc(C(F)(F)F)cc2)ccc2cccnc12` (centres undefined) it is 41.6 ×10⁻⁶ cm/s; for `COc1ccc(Nc2ncc(C(=O)Nc3cccc(Cl)c3)c3ccccc23)cc1` it is 67.1 ×10⁻⁶ cm/s.
As to `COc1ccc(-n2nc(C3CCN([S+](=O)([O-])c4cccc(C(F)(F)F)c4)CC3)[nH]c2=O)cc1`, the Papp came out at 242 ×10⁻⁶ cm/s.
Molecule `Cc1cnc(-c2ccccc2C(C)C)nc1NCC1CCN(c2cccnc2)CC1` registered a Papp above 1000 ×10⁻⁶ cm/s.
With `Cc1ccc(S(=O)(=O)Nc2ccccc2C(=O)Nc2nccs2)cc1`, the Papp came out at 478 ×10⁻⁶ cm/s.
`FC(F)(F)c1ccc(N2CCN(C(=S)Nc3ccccn3)CC2)cc1`: the apparent permeability (Papp) worked out at 815 ×10⁻⁶ cm/s.
With `CN(C)C(=O)NC1CCC(CCN2CCN(c3cccc(Cl)c3Cl)CC2)CC1` (centres undefined), the Papp worked out at 514 ×10⁻⁶ cm/s.
`CN(C)C(=O)c1cccc(-c2csc(N3CCC(C(N)=O)CC3)n2)c1` showed a Papp of 30.5 ×10⁻⁶ cm/s.
With `Cc1ccc(-n2ncc3c(NCCCn4ccnc4)ncnc32)cc1Cl`, the Papp is above 1000 ×10⁻⁶ cm/s.
To `O=[N+]([O-])c1ccc(CNc2ccc([S+](=O)([O-])Nc3nccs3)cc2)c(O)c1` belongs 1.2 ×10⁻⁶ cm/s; to `CCOC(=O)c1c(C)c(-c2ccccc2)n(CC(=O)NCc2ccccc2)c1C`, above 1000 ×10⁻⁶ cm/s; to `CC(C)(N)C(=O)N[C@H](COCc1ccccc1)C(=O)N1CCC2(CC1)CN(S(C)(=O)=O)c1ccccc12`, 819 ×10⁻⁶ cm/s.
Take `O=C(Nc1ccc(Oc2ccnc3[nH]ccc23)c(F)c1)c1cccn(-c2ccc(F)cc2)c1=O`: the Papp amounted to 407 ×10⁻⁶ cm/s.
In the case of `CC(=O)c1c(C)[nH]c(C(=O)N(C)C)c1C`, the Papp turned out to be 57.4 ×10⁻⁶ cm/s.
On to `Nc1ncnc(N2CCc3ccccc32)c1[N+](=O)[O-]`, for which the Papp was 295 ×10⁻⁶ cm/s.
The molecule `CCOC(=O)C1CCN(C(=O)C2(NC(=O)Nc3ccc(F)cc3F)CCCCC2)CC1` registered an apparent permeability (Papp) of 177 ×10⁻⁶ cm/s.
`COC(=O)c1ccccc1C(=O)Nc1nc(-c2ccccc2)cs1` yielded a Papp of 896 ×10⁻⁶ cm/s.
To `CCC(CC)c1cc([C@H]2CN3CC[C@H]2C[C@@H]3CNS(=O)(=O)c2cccs2)nc(-c2ccncc2)n1` belongs above 1000 ×10⁻⁶ cm/s; to `CC(=O)c1c(C)[nH]c(C(=O)Nc2cccc(S(=O)(=O)N3CCCCC3)c2)c1C`, above 1000 ×10⁻⁶ cm/s; to `CCOc1ccc(CCNC(=O)c2cc3sccc3n2CCN2CCOCC2)cc1OCC`, above 1000 ×10⁻⁶ cm/s.
For `NC(=O)C1CCN(c2nc(-c3ccccc3F)cs2)CC1`, the apparent permeability coefficient (Papp) came out at 558 ×10⁻⁶ cm/s.
To `Cc1ccccc1OCC(O)CO` (centres undefined) belongs 44.4 ×10⁻⁶ cm/s.
`CCC(CC)(NC(=O)C(C)C)C(=O)N[C@@H](CCCN=C(N)N)C(=O)NC1(C(=O)NC(c2ccc(F)cc2)c2ccc(F)cc2)CCCC1` registered a Papp of 8 ×10⁻⁶ cm/s.
To `CCCNC(=O)c1ccc2c(c1)ncn2-c1cc(C)cc(C)c1` belongs above 1000 ×10⁻⁶ cm/s.
The molecule `Cc1ccc(S(=O)(=O)Nc2cnccc2C(=O)Nc2ccc(-n3cncn3)cc2)cc1` registered a Papp of 8.29 ×10⁻⁶ cm/s.
To `C[C@]12N[C@H](Cc3ccccc31)c1ccccc12` belongs above 1000 ×10⁻⁶ cm/s.
The figure for `Cc1cc(-c2nnc3n2CCCCC3)c(C)n1-c1cccc(Cl)c1` is above 1000 ×10⁻⁶ cm/s; for `CCN(CC)C(=O)N1c2ccccc2C=Cc2ccccc21` it is above 1000 ×10⁻⁶ cm/s; for `COc1cccc(Nc2nc(-c3ccncc3)nc3ccccc23)c1` it is above 1000 ×10⁻⁶ cm/s.
`CC(C)N(CCCNC(=O)Nc1ccc(C(C)(C)C)cc1)C[C@H]1O[C@@H](n2ccc3c(N)ncnc32)[C@H](O)[C@@H]1O` displayed a Papp of 10.7 ×10⁻⁶ cm/s.
In turn, `Cc1ccccc1CSc1nc2ncc(Br)cc2[nH]1` gave a Papp of 497 ×10⁻⁶ cm/s.
With `CCc1ccc(OC(C)C(=O)N2CCC(c3nc4ccccc4o3)CC2)cc1` (centres undefined), the apparent permeability coefficient (Papp) is above 1000 ×10⁻⁶ cm/s.
For the molecule `CN(C)C(=O)c1nc(-c2ccc(Cl)cc2Cl)c2cnccn12`, the Papp was above 1000 ×10⁻⁶ cm/s.
Molecule `O=C(Nc1cccc(F)c1)c1cc(-c2ccc[nH]2)n[nH]1` had a Papp of 136 ×10⁻⁶ cm/s.
`c1cc(-c2cc(-c3ccncc3)c3cncn3c2)c2cc[nH]c2c1` yielded a Papp of 236 ×10⁻⁶ cm/s.
For `COc1cc(/C=C2\C(=O)Nc3ccccc32)ccc1O`, the Papp was above 1000 ×10⁻⁶ cm/s.
To `CCN1C(=O)c2ccccc2S(=O)c2ccc(NC(=O)Cc3ccc(F)cc3)cc21` (centres undefined) belongs above 1000 ×10⁻⁶ cm/s.
`CCCCCn1c(=O)[nH]c2cc(C(=O)NCCCN3CCCCC3)ccc2c1=O` returned a Papp of 27.5 ×10⁻⁶ cm/s.
Molecule `C[C@@H](NC(=O)c1ncnc(N)c1Cl)c1ncc(C(=O)Nc2cc(C(F)(F)F)c(Cl)cn2)s1` showed a Papp above 1000 ×10⁻⁶ cm/s.
To `O=C(Nc1nc(-c2ccccc2)cs1)c1ccncc1NS(=O)(=O)c1ccc2ccccc2c1` belongs above 1000 ×10⁻⁶ cm/s; to `COC(=O)c1ccccc1NC(=O)c1ccccc1OC(F)F`, above 1000 ×10⁻⁶ cm/s.
As for `Cc1cccc2nc(-c3ccccn3)c(Nc3ccc(F)cc3)n12`, the apparent permeability coefficient (Papp) is above 1000 ×10⁻⁶ cm/s.
As for `O=C(NCCCO)c1ccc(-c2ncc3cnc(-c4cccc(F)c4)cn23)cc1`, the apparent permeability (Papp) came to 32 ×10⁻⁶ cm/s.
The figure for `CC(=O)Nc1ccc(S(=O)(=O)Nc2nccs2)cc1` is below 1 ×10⁻⁶ cm/s; for `NC(=O)C1CCN(c2nc(-c3ccc4c(c3)CCO4)cs2)CC1` it is above 1000 ×10⁻⁶ cm/s.
